# Patent publication US20100048713A1, “COMPOUNDS ACTING ON THE SEROTONIN TRANSPORTER” (Aarhus Universitet, priority 2006, published 2010)
# “Also recorded” adds a separate entry of the source.
# Legend:
# hSERT [1] = biological target: T1, hSERT (Homo sapiens, UniProt P31645); experiment: Dissociation assay with [3H]-citalopram and hSERT membrane preparations; type: binding; conditions: for Stabilises dissociation of [3H]-citalopram: own effect (10 uM fluoxetine) (concentration which affects dissociation): 10 uM fluoxetine in dissociation buffer; for Stabilises dissociation of [3H]-citalopram: 15 uM citalopram (concentration which affects dissociation): 15 uM citalopram in dissociation buffer
# T1 construct: expressed in transfected cells; the general 96-well protocol names Cos-1
# Procedure: (§1) 17.5 μl Fugene-6 (Roche Molecular Biochemicals) were mixed with 280 μl Dulbecco's modified Eagle's medium, and incubated at room temperature for 5 minutes. 10 μg of plasmid were added and the mixture was further incubated at least 15 minutes. […] Prior to harvesting the dish was rinsed in PBS. Cells were harvested with a cell scraper in buffer 1 (50 mM Tris-base, 150 mM NaCl, 20 mM EDTA, pH 7.4). After centrifugation (3000 g at 4° C. for 10 mins), cells were suspended and homogenized with an IKA Ultra-Turrax from Rose Scientific Ltd (Edmonton, Alberta, Canada) for 20 s in buffer 1. Membranes were pelleted by ultracentrifugation (12 000 g at 4° C. for 15 min) and homogenization was repeated in buffer 1. Finally, after ultracentrifugation (12000 g, 4° C., 15 min) membranes were resuspended in 1 ml buffer 3 (50 mM Tris-base, 120 mM NaCl, 5 mM KCl, pH 7.4) and stored at −80° C.
# Dissociation assay with [^3H]-citalopram and membrane preparations SERT-[^3H]-citalopram complex was formed by incubating hSERT membrane preparation and radioligand in buffer 3 during a 60 min incubation at 4° C. Radioligand was present at a concentration 10 times the Kd value. The time kinetic of dissociation was followed by adding 10 μL complex solution to 250 μL buffer 3 in 96-well plates and incubating subsequently for increasing time intervals at RT. Reactions were terminated by filtration through GF/C glass-fibre filters (Unifilter, Perkin Elmer Life Sciences), preincubated with 40 μl 0.5 % polyethyleneimine, using a Pachard Bell cell harvester, and subsequently washed three times with water. Filters were soaked in 40 μl Microscint 20 scintillation liquid (Pachard Bell). Bound radioactivity was determined by direct counting of plates using a Packard Bell microplate scintillation counter. Dissociation curves were obtained by plotting residual binding vs. time of dissociation.
# The interaction of the allosteric ligand with the allosteric mechanism used by citalopram was studied by combining allosteric ligand and citalopram in the dissociation buffer. The interaction of the allosteric ligand with the radioligand was studied by combining the allosteric ligand and fluoxetine in the dissociation buffer.
# (§2) Dissociation of [^3H]-citalopram from the serotonin transporter has been studied using membrane preparations from SERT-expressing cells. The off-rates of the radioligand were measured in the presence/absence of a fixed concentration of allosteric ligand. […] Additionally, the allosteric impact on the radioligand in the absence of citalopram, was studied by combining 10 μM fluoxetine and 200/2000 μM allosteric ligand in the dissociation buffer. […] The cells were incubated for 10 minutes before the assay was terminated by washing in PBSCM.
# hSERT [2] = biological target: T1, hSERT; experiment: 5-HT uptake assay, 10 min incubation without preincubation; type: cell-based; conditions: 75 nM [3H]-5-HT, no preincubation
# Procedure: Cells were grown for 48 h to confluency, and prior to uptake assay, plates were washed in PBSCM. All washing steps were carried out in an automatic plate washer. […] The assay was terminated by washing with PBSCM. The amount of accumulated [^3H]-5HT was determined by solubilizing cells in scintillant (MicroScint 20) with direct counting of plates in a Packard TopCounter. Data was analyzed by GraphPad software.
# as §2
# hSERT [3] = biological target: T1, hSERT; experiment: Binding of [3H]-citalopram to membrane preparations; conditions: 35 nM [3H]-citalopram, 60 min RT
# Procedure: as §1
# A dilution series of the allosteric ligand was prepared in buffer 3 containing 70 nM [^3H]-citalopram. […] The mixture was incubated under moderate agitation at RT for 60 min. Reactions were terminated by filtration through GF/C glass-fibre filters (Unifilter, Perkin Elmer Life Sciences), preincubated with 40 μl 0.5 % polyethyleneimine, using a Pachard Bell cell harvester, and subsequently washed three times with water. Filters were soaked in 40 μl Microscint 20 scintillation liquid (Pachard Bell). Bound radioactivity was determined by direct counting of plates using a Packard Bell microplate scintillation counter. Displacing curves were obtained by plotting residual binding vs. log concentration of the displacing ligand.
# [4] = test system: dorsal raphe 5-HT neurons; type: in vivo
# Procedure: The experiments were carried out in male Sprague-Dawley rats weighing 250-300 g at the day of the recording. Prior to the acute study, a dose-response curve on the suppressive effect on neuronal firing of fluoxetine was constructed. Subsequently, in the acute study, 5 mg/kg 1-NSC was injected i.v. followed by administration of 1 mg/kg fluoxetine. In the chronic administration experiments, groups of rats were treated with fluoxetine (10 mg/kg/day), 1-NSC (2×10 mg/kg/day) or in combination for 7 days delivered subcutaneously (s.c.) with osmotic minipumps. Control rats received a minipump containing vehicle (NaCl 0.9%). The rats were tested with the minipumps in place.
# Extracellular recordings were performed with single-barreled glass micropipettes preloaded with fiberglass filaments in order to facilitate filling. The tip was broken back to 2-4 μm and filled with a 2 M NaCl solution saturated with Pontamine Sky Blue to stain the location. The rats were placed in a stereotaxic frame and a burr hole was drilled on the midline, 1 mm anterior to lambda. Presumed DRN 5-HT neurons were encountered over a distance of 1 mm starting immediately below the ventral border of the Sylvius aqueduct. These neurons were identified using the criteria of Aghajanian (1978): a slow (0.5-2.5 Hz) and regular firing rate and long-duration (0.8-1.2 ms) positive action potentials; they were also verified to be located in DRN. WAY 100635 (N-{2-[4(2-methoxyphenyl)-1-piperazinyl]ethyl}-N-(2-pyridinyl)cyclohexanecarboxamide trihydrochloride; 50-100 μg/kg, i.v.) was used to reverse the suppressant effect of fluoxetine or fluoxetine/1-NSC on the firing activity of DRN 5-HT neurons. […] For the chronic studies, in order to determine the possible changes of the spontaneous firing activity of dorsal raphe 5-HT neurons, four to five electrode descents were carried out through this nucleus, in rats with minipumps in place.
# The allosteric ligand 1-NSC was tested in vivo in Sprague-Dawley rats for the ability to interfere with fluoxetine-induced suppression of the neuronal firing rate (Assay 6).
# hSERT [5] = biological target: T1, hSERT; experiment: Binding assay on whole cells transfected with hSERT ([3H]-citalopram displacement); conditions: whole cell assay, 35 nM [3H]-citalopram, 60 min room temperature; table title: 45 min preincubation
# Procedure: The pcDNA3 plasmid vector containing the hSERT gene was used for transfection (see FIG. 6).
# (§3) The 96-well plate was washed with PBSCM to remove DMEM prior to the assay. […] The plate was subsequently incubated for 60 min at room temperature. The assay was terminated by washing once with PBSCM. The amount of accumulated [^3H]-citalopram was determined by solubilizing cells in scintillant (MicroScint 20) with direct counting of plates in a Packard TopCounter. Data was analyzed by GraphPad software.
# hSERT [6] = biological target: T1, hSERT; experiment: 5-HT uptake assay with preincubation (whole cells); type: cell-based; conditions: whole cell assay with preincubation (title 45 min, text 60 min), 75 nM [3H]-5-HT, 10 min
# Procedure: 7 μl Fugene-6 was mixed with 112 μl Dulbecco's modified Eagle's medium, and incubated at room temperature for 5 minutes. 4 μg of plasmid were added and the mixture was further incubated at least 15 minutes. Cos-1 cells were trypsinized and suspended in growth media, and the plasmid/Fugene-6 mixture was added followed by dispersion into a 96-well plate.
# as §3, with “assay. 50 μl PBSCM containing increasing concentrations of allosteric ligand were added to each well, and incubated for 60 min at room temperature under moderate agitation.” for “assay.”, “10” for “60”, “[^3H]-5-HT” for “[^3H]-citalopram”
# We tested the allosteric ligands for their ability to inhibit/activate 5-HT-uptake in the whole-cell assay after 60 minutes preincubation.
# hDAT = biological target: T2, hDAT (Homo sapiens, UniProt Q01959); experiment: Binding of [125I]-RTI-55 in whole cell assay, cells transfected with human DAT; conditions: displacement of [125I]-RTI-55
# T2 construct: expressed in transfected cells
# Text: A binding assay as described in example 2, wherein the cocaine analogue [^125I] RTI-55 was used to test for the compounds of the present invention to act as displacers of cocain.
# (§4) Because RTI-55 (and cocaine) acts as inhibitors of SERT and DAT, we also performed the binding assay in cells transfected with human DAT.
# hSERT [7] = biological target: T1, hSERT; experiment: Binding of [125I]-RTI-55 in whole cell assay, hSERT; conditions: displacement of [125I]-RTI-55
# Text: RTI-55 was used to test for the compounds of the present invention to act as displacers of cocain.
# as §4
# T1 sequence (P31645 whole entry): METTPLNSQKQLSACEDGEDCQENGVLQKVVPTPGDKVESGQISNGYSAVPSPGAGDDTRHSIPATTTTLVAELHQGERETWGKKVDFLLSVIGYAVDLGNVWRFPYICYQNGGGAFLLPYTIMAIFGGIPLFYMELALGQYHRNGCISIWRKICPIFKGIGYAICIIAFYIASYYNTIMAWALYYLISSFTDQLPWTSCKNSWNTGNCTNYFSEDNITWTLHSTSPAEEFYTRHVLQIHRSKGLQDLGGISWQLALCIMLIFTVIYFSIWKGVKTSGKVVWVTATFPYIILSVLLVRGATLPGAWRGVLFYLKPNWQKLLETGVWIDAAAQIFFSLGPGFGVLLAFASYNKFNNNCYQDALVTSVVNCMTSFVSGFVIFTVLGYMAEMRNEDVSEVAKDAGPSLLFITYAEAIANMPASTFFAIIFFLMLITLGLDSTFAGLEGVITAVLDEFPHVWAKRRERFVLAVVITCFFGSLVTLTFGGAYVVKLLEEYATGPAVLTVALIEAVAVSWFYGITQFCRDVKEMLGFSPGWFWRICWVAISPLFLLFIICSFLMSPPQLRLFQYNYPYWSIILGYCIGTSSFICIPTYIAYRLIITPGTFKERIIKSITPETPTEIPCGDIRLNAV
# T2 sequence (Q01959 whole entry): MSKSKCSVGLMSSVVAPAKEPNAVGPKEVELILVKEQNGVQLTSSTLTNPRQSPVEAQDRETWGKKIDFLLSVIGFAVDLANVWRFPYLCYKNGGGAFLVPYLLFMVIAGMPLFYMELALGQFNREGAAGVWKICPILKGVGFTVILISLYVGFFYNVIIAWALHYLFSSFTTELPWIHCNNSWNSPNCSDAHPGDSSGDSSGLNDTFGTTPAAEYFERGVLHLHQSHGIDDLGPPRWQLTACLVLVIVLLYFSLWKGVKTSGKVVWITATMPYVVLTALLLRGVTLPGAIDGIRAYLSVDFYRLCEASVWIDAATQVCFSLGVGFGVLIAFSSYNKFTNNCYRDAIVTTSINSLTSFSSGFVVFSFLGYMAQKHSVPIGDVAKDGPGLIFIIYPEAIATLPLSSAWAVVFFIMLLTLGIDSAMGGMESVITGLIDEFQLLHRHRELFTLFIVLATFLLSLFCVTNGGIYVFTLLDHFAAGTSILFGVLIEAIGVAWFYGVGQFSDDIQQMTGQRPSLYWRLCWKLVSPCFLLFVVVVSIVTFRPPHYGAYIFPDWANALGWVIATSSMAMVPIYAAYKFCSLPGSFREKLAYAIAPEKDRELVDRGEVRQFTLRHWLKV
structure (smiles),measurement,setting,value
"O=S(=O)(Cl)c1cccc2ccccc12 [1-NSC, 1-naphthalenesulfonyl chloride]",Stabilises dissociation of [3H]-citalopram: own effect (10 uM fluoxetine) (concentration which affects dissociation),hSERT [1],2000 µM
same,Stabilises dissociation of [3H]-citalopram: 15 uM citalopram (concentration which affects dissociation),hSERT [1],2000 µM
same,5-HT uptake (effect),hSERT [2],Increase
same,Binding of [3H]-citalopram (Bmax),hSERT [3],Displace
same,effect of 1-NSC alone on neuronal firing rate,"[4]; acute injection, restored within minutes (FIG. 1)",small decrease in neuronal firing rate
same,effect on fluoxetine-induced suppression of the neuronal firing rate,"[4]; acute study, 5 mg/kg 1-NSC then 1 mg/kg fluoxetine, DRN (FIG. 1)",acutely enhances the fluoxetine-induced suppression of the neuronal firing rate; also recorded: potentiation of the fluoxetine-induced suppression of the neuronal firing rate
same,recovery of dorsal raphe 5-HT neuronal firing of fluoxetine treated rats (FIG. 2),"[4]; chronic treatment, 7 day period",potentiated
same,toxic side effects,"[4]; doses used in the experiments of FIGS. 1 and 2, rats",no apparent toxic side effects
Cc1ccc(S(=O)(=O)n2ccnc2)cc1 [TS14],EC50,hSERT [5],1260 µM
same,IC50,hSERT [6],1820 µM
same,EC50,hDAT,1280 µM
same,EC50,hSERT [7],2310 µM
same,Stabilises dissociation of [3H]-citalopram: own effect (10 uM fluoxetine) (concentration which affects dissociation),hSERT [1],2000 µM
same,Stabilises dissociation of [3H]-citalopram: 15 uM citalopram (concentration which affects dissociation),hSERT [1],2000 µM
same,5-HT uptake (effect),hSERT [2],No effect
same,Binding of [3H]-citalopram (Bmax),hSERT [3],No effect
"COc1ccccc1N1CCN(CCN(C(=O)C2CCCCC2)c2ccccn2)CC1.Cl.Cl.Cl [Way 100,635, N-{2-[4(2-methoxyphenyl)-1-piperazinyl]ethyl}-N-(2-pyridinyl)cyclohexanecarboxamide trihydrochloride, reference compound]",reversal of suppression of the neuronal firing rate,"[4]; 50-100 ug/kg i.v. after fluoxetine or fluoxetine/1-NSC, trihydrochloride",reverses the suppressive effect of fluoxetine on the neuronal firing rate; also recorded: completely restored the neuronal firing rate
"CNCCC(Oc1ccc(C(F)(F)F)cc1)c1ccccc1 (stereo not drawn) [fluoxetine, reference compound]",recovery of the firing rates,"[4]; chronic treatment 7 days s.c. minipumps, rats (FIG. 2)",30%
